Values after ≈ are worked out from the molar mass of the structure shown. Where only a bound is given, the exact number is not on record here.

Holding throughout (format): functional
Assay [1] concerns Aspergillus flavus. As to the kind of experiment: Antifungal activity against Aspergillus flavus NCIM 524 assessed as growth inhibition at 1.56 to 25 ug/mL.
The test system of assay [2] is Talaromyces marneffei. As to the kind of experiment: Antifungal activity against Talaromyces marneffei assessed as growth inhibition by serial plate dilution method.
For assay [3], the system named is Staphylococcus aureus. As to the kind of experiment: Antibacterial activity against Staphylococcus aureus ATCC 25923 assessed as growth inhibition at 1.56 to 25 ug/mL.
Assay [4] concerns Escherichia coli. As to the kind of experiment: microbe, parasite or virus in culture. The following applies: ATCC 25922.
Description: Antibacterial activity against Escherichia coli ATCC 25922 assessed as growth inhibition by serial plate dilution method
The subject of assay [5] is Staphylococcus aureus. As to the kind of experiment: Antibacterial activity against Staphylococcus aureus ATCC 25923 assessed as growth inhibition by serial plate dilution method.
The subject of assay [6] is Klebsiella pneumoniae. Put plainly: Antibacterial activity against Klebsiella pneumoniae assessed as growth inhibition at 1.56 to 25 ug/mL.
The subject of assay [7] is Trichophyton mentagrophytes. Put plainly: Antifungal activity against Trichophyton mentagrophytes assessed as growth inhibition at 1.56 to 25 ug/mL.
The subject of assay [8] is Escherichia coli. As to the kind of experiment: Antibacterial activity against Escherichia coli ATCC 25922 assessed as growth inhibition at 1.56 to 25 ug/mL.
Assay [9] concerns Talaromyces marneffei. As to the kind of experiment: Antifungal activity against Talaromyces marneffei assessed as growth inhibition at 1.56 to 25 ug/mL.
Assay [10] concerns Aspergillus flavus. As to the kind of experiment: Antifungal activity against Aspergillus flavus NCIM 524 assessed as growth inhibition by serial plate dilution method.
Assay [11] has as its system Aspergillus fumigatus. Put plainly: Antifungal activity against Aspergillus fumigatus NCIM 902 assessed as growth inhibition at 1.56 to 25 ug/mL.
Assay [12] deals with Pseudomonas aeruginosa. As to the kind of experiment: Antibacterial activity against Pseudomonas aeruginosa ATCC 27853 assessed as growth inhibition at 1.56 to 25 ug/mL.
The test system of assay [13] is Aspergillus fumigatus. As to the kind of experiment: Antifungal activity against Aspergillus fumigatus NCIM 902 assessed as growth inhibition by serial plate dilution method.
Assay [14] concerns Klebsiella pneumoniae. Put plainly: Antibacterial activity against Klebsiella pneumoniae assessed as growth inhibition by serial plate dilution method.
For assay [15], the system named is Pseudomonas aeruginosa. As to the kind of experiment: Antibacterial activity against Pseudomonas aeruginosa ATCC 27853 assessed as growth inhibition by serial plate dilution method.
Assay [16] deals with Radical scavenging activity. Put plainly: Antioxidant activity assessed as inhibition of DPPH radical generation at 4000 ug/mL after 15 min by UV-Vis spectrophotometric analysis relative to control. The following applies: at 4000 µg/mL.
In assay [17] the test system is Trichophyton mentagrophytes. Put plainly: Antifungal activity against Trichophyton mentagrophytes assessed as growth inhibition by serial plate dilution method.

Take `COc1ccc(C2=NN(c3nc(-c4ccc([N+](=O)[O-])cc4)cs3)C(c3ccc(-c4cc(Cl)c(Cl)cc4Cl)o3)C2)cc1OC` (stereo unspecified): the “diameter of the inhibition zone (DIZ)” value in [1], in [3], in assay [6], in assay [7], in [8] and in assay [9] was 16 mm in each case. Also, the “diameter of the inhibition zone (DIZ)” value in [11] and in assay [12] was 16 mm throughout. Also, the MIC in assay [2], in assay [4], in assay [5], in assay [10], in assay [13] and in assay [14] was 6.25 µg/mL (≈ 9.53 µM) each time. Further, the MIC in assay [15] and in assay [17] was 6.25 µg/mL (≈ 9.53 µM) throughout. Further, the inhibition in [16] stood at 57%.
Consider `COc1ccc(C2=NN(c3nc(-c4ccc([N+](=O)[O-])cc4)cs3)C(c3ccc(-c4ccc([N+](=O)[O-])cc4C)o3)C2)cc1OC` (stereo unspecified), for which the “diameter of the inhibition zone (DIZ)” value in assay [1], in [3], in assay [6], in [7], in assay [8] and in assay [9] was 16 mm in each case. Further, the “diameter of the inhibition zone (DIZ)” value in [11] and in assay [12] was 16 mm each time. Besides, the MIC in assay [2], in assay [4], in assay [5], in assay [10], in assay [13] and in [14] was 6.25 µg/mL (≈ 10.2 µM) each time. Further, the MIC in assay [15] and in assay [17] was 6.25 µg/mL (≈ 10.2 µM) throughout. The inhibition in assay [16] came to 14%.
In the case of `COc1ccc(C2=NN(c3nc(-c4ccc([N+](=O)[O-])cc4)cs3)C(c3ccc(-c4ccc(Cl)cc4Cl)o3)C2)cc1OC` (stereo unspecified), the “diameter of the inhibition zone (DIZ)” value in assay [1], in assay [3], in assay [6], in [7], in [8] and in assay [9] was 16 mm throughout. Moreover, the “diameter of the inhibition zone (DIZ)” value in assay [11] and in assay [12] was 16 mm in each case. In addition, the MIC in assay [2], in assay [4], in assay [5], in assay [10], in assay [13] and in assay [14] was 6.25 µg/mL (≈ 10.1 µM) in each case. Besides, the MIC in assay [15] and in assay [17] was 6.25 µg/mL (≈ 10.1 µM) in each case. The inhibition in [16] was determined as 86%.
On to `CSc1ccc(C2CC(c3ccc([N+](=O)[O-])cc3)=NN2c2nc(-c3ccc([N+](=O)[O-])cc3)cs2)cc1` (stereo unspecified), for which the diameter of the inhibition zone (DIZ) in assay [1], in assay [3], in assay [6], in [7], in assay [8] and in [9] was < 10 mm each time. Also, the diameter of the inhibition zone (DIZ) in assay [11] and in [12] was < 10 mm throughout. Besides, the MIC in [2], in assay [4], in assay [5], in [10], in [13] and in assay [14] was 25 µg/mL (≈ 48.3 µM) throughout. Moreover, the MIC in [15] and in assay [17] was 25 µg/mL (≈ 48.3 µM) each time. In [16], the inhibition was 75%.
Turning to `COc1ccc(C2=NN(c3nc(-c4ccc([N+](=O)[O-])cc4)cs3)C(c3ccc(-c4c(C)cccc4[N+](=O)[O-])o3)C2)cc1OC` (stereo unspecified), the “diameter of the inhibition zone (DIZ)” value in [1], in assay [3], in [6], in assay [7], in assay [8] and in [9] was 11 mm throughout. Moreover, the “diameter of the inhibition zone (DIZ)” value in assay [11] and in assay [12] was 11 mm each time. The MIC in [2], in assay [4], in assay [5], in assay [10], in assay [13] and in assay [14] was 12.5 µg/mL (≈ 20.4 µM) in each case. The MIC in assay [15] and in assay [17] was 12.5 µg/mL (≈ 20.4 µM) throughout. Moreover, the inhibition in assay [16] came to 66%.
For the compound `COc1ccc(C2=NN(c3nc(-c4ccc([N+](=O)[O-])cc4)cs3)C(c3ccc(-c4ccc(Cl)cc4)o3)C2)cc1OC` (stereo unspecified), the “diameter of the inhibition zone (DIZ)” value in [1], in assay [3], in assay [6], in assay [7], in assay [8] and in assay [9] was 16 mm throughout. In addition, the “diameter of the inhibition zone (DIZ)” value in assay [11] and in assay [12] was 16 mm each time. Besides, the MIC in assay [2], in assay [4], in assay [5], in [10], in assay [13] and in [14] was 6.25 µg/mL (≈ 10.6 µM) each time. The MIC in assay [15] and in assay [17] was 6.25 µg/mL (≈ 10.6 µM) in each case. The inhibition in assay [16] is 35%.
Consider `COc1ccc(C2=NN(c3nc(-c4ccc([N+](=O)[O-])cc4)cs3)C(c3ccc(-c4ccc(Br)cc4)o3)C2)cc1OC` (stereo unspecified), for which the “diameter of the inhibition zone (DIZ)” value in assay [1], in assay [3], in assay [6], in assay [7], in assay [8] and in assay [9] was 11 mm each time. Besides, the “diameter of the inhibition zone (DIZ)” value in [11] and in assay [12] was 11 mm each time. Besides, the MIC in [2], in assay [4], in [5], in assay [10], in [13] and in assay [14] was 12.5 µg/mL (≈ 19.8 µM) each time. The MIC in [15] and in assay [17] was 12.5 µg/mL (≈ 19.8 µM) in each case. For the same compound, the inhibition in assay [16] amounted to 69%.
`O=[N+]([O-])c1ccc(-c2csc(N3N=C(c4ccccc4)CC3c3ccc(-c4ccc(Cl)cc4)o3)n2)cc1` (stereo unspecified): the “diameter of the inhibition zone (DIZ)” value in assay [1], in assay [3], in [6], in assay [7], in [8] and in [9] was 11 mm in each case. The “diameter of the inhibition zone (DIZ)” value in assay [11] and in assay [12] was 11 mm in each case. Also, the MIC in [2], in [4], in [5], in assay [10], in [13] and in assay [14] was 12.5 µg/mL (≈ 23.7 µM) in each case. Also, the MIC in [15] and in [17] was 12.5 µg/mL (≈ 23.7 µM) throughout. For the same compound, in assay [16], the inhibition turned out to be 45%.

The values above are taken from ChEMBL document CHEMBL3045838, “Synthesis, antimicrobial and antioxidant activities of 2-[1-{3,5-diaryl-4,5-dihydro-1H-pyrazolenyl}]-4-(4-nitrophenyl)-[1,3]-thiazoles” (2013).
